Test: Clinical trial: Wanting, Liking and Intensity ratings of flavored waters after a preload
Type: in vivo, human
Settings: prior consumption of the preload, then rating of isoamyl acetate flavored water; 17 participants
Description: Isoamyl acetate was combined with 0.5% w/w sucrose (Fisher Scientific) and dissolved in bottled mineral water (Vittel, Nestlé waters, France). Isoamyl acetate was provided as liquid concentrate supplied by Sigma-Aldrich (Steinheim, Germany). The final concentration of isoamyl acetate was 16 ppm.
A clinical trial with 17 healthy participants was conducted to investigate the neural correlates of flavor reward in terms of “Liking” (or pleasure) and “Wanting” (or appetite). Seventeen participants rated flavored waters in different conditions while their brain electrical activity was monitored using electro-encephalography. Waters were flavored either with isoamyl acetate (described as banana) or ethyl butyrate (described as strawberry). Experimental conditions consisted in the ratings of the 2 flavored waters after a preload (prior consumption of a flavored water) or without a preload.
The behavioral results of this clinical trial are summarized in FIG. 1 showing the mean Wanting (or appetite) and Liking (or pleasure) ratings (from 1, not at all to 9, extremely) obtained for the ETB flavored water in the different Preload conditions from 17 participants. […] IAA: isoamyl acetate; ETB: ethyl butyrate.

CCCC(=O)OCC [ethyl butyrate]
appetite for isoamyl acetate flavored water: no impact

Source: patent US8647687B2, “Isoamyl acetate for weight management” (Nestec S.A., priority 2008, dated 2014)
